Reference: patent US11072633B2 (priority 2016, dated 2021)
Converted amounts (≈) assume the structure as drawn. Like-named read-outs stand apart in the source and are kept apart here.

Experiments:
M. tuberculosis = assay: Minimum Bactericidal Concentration (MBC); type: cell-based; conditions: Mycobacterium tuberculosis
M. tuberculosis CDC1551 [1] = assay: microbe, parasite or virus in culture; type: cell-based; conditions: for MIC: Mycobacterium tuberculosis; for Aerobic MIC of CLOF: CLOF with 10 μM 6-azasteroid
[2] = 10 mg/kg IP injection once per day, seven days per week, for 40 days
M. tuberculosis CDC1551 [3] = assay: In vitro kill kinetics / time-kill (FIG. 2, FIG. 3); type: cell-based; conditions: for rapid killing with mono-treatment: mono-treatment at 10-20 μM, 15 days, FIG. 2
in vitro [4] = conditions: both, human, microsomes, pH 7.4
Caco-2 cell line = assay: in vitro; type: in vitro ADME; conditions: for substrate for P-gp transporter: Caco-2; for intestinal absorption suggested by Papp(A-B): Caco-2, 5 μM
Method: (§1) Caco-2 cells were diluted to 6.86×10^6 cells/mL, dispensed into a 96-well HTS Transwell plate, and cultured for 14 to 18 days. 6-azasteroids at 5 μM was incubated at 37° C. for 2 hours with the Caco-2 cell monolayer in HBSS buffer (10 mM HEPES, pH 7.4) containing 5% BSA. Aliquots from donor sides (apical compartment for Ap→Bl flux, and basolateral compartment for Bl→Ap) and receiver sides (basolateral compartment for Ap→Bl flux, and apical compartment for Bl→Ap) were separated and extracted by acetonitrile or methanol containing appropriate internal standards (IS). The concentration of 6-azasteroid was determined by LC-MS/MS analysis.
(§2) Elution rate: 0.65 mL/min.
(§3) To predict absorption via oral administration, Caco-2 bidirectional permeability assay was performed (Table 8).

in vitro [5] = type: in vitro ADME; conditions: human; for Papp A→B at 2 h, 5 μM: Caco-2, pH 7.4, Papp(A-B)
Method: as §1, §2, §3

[6] = tested on: luminescent strain of H37Rv in infected J774A.1 cells; assay: microbe, parasite or virus in culture; type: cell-based, M. tuberculosis; conditions: for IC50 / IC90: Mycobacterium tuberculosis, H37RV, J774.A1, single compound, 72 h treatment
[7] = tested on: M. tuberculosis constitutively expressing the luxABCDE operon; assay: microbe, parasite or virus in culture; type: cell-based; conditions: for MIC: Mycobacterium tuberculosis, read-out: LORA MIC of INH; for activity under low oxygen conditions: in combination with isoniazid
[8] = human liver microsomes, value by Frye (Frye, S. V. 2006); cited from earlier work
hERG = molecular target: T1, hERG (Homo sapiens, UniProt Q12809); assay: hERG assay (hERG currents in HEK 293 cells); type: cell-based; conditions: hERG stably expressed HEK 293 cells
T1 construct: expressed in transfected cells
T1 sequence (Q12809 whole entry): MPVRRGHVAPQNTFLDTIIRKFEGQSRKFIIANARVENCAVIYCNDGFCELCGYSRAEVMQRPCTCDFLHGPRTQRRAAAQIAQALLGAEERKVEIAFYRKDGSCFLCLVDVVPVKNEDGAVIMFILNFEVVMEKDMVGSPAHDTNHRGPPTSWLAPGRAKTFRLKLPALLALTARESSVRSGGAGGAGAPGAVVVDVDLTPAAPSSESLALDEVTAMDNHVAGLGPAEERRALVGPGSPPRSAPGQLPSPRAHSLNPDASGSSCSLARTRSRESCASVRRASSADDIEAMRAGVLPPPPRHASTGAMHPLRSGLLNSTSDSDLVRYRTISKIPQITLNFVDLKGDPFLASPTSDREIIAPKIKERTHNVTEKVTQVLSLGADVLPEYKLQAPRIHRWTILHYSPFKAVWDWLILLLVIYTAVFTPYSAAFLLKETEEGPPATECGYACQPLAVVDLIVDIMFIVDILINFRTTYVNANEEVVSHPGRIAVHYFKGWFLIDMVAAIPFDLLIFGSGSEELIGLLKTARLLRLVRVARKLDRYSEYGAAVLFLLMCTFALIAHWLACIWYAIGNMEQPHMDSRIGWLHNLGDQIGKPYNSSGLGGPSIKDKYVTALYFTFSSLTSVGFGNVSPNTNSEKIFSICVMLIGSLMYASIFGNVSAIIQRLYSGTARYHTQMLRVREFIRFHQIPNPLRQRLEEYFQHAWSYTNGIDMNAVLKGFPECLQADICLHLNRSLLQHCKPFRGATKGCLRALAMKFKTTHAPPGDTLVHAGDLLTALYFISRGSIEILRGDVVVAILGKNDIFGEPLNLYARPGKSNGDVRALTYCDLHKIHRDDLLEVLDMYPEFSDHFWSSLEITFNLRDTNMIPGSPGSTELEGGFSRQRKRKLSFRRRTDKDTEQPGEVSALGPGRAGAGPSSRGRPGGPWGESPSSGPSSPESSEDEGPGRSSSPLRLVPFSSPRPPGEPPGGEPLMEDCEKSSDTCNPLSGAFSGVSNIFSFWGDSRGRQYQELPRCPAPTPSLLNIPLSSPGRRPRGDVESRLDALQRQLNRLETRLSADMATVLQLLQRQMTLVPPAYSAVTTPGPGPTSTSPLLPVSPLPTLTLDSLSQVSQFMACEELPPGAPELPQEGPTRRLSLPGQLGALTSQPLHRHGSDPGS
Method: hERG stably expressed HEK 293 cells were seeded at 5×10^5 cells/per 6 cm cell culture dish and induced with doxycycline at 1 μg/mL for 48 hours. Compound at the final concentrations of 30, 10, 3.33, 1.11 and 0.37 μM was applied to the cells accumulatively, post-compound hERG currents were recorded, and IC50 was calculated. Dofetilide was used as a positive control.
To predict the potential cardiotoxic effects of 6-azastroids, human ether-a-go-go related gene (hERG) assay was applied to 100, 107 and 114 (Table 9). Cytotoxicity of 107 was also assessed (Table 10).

[9] = both, human, microsomes, 2 μM, pH 7.4; for Remaining Percentage with NADPH, 0 min: 0 h; for Remaining Percentage with NADPH, 15 min: 0.25 h; for Remaining Percentage with NADPH, 30 min: 0.5 h; for Remaining Percentage with NADPH, 45 min: 0.75 h; for Remaining Percentage with NADPH, 60 min: 1 h
Mtb = assay: Isoniazid MIC shift on Mtb MIC plates (broth microdilution MIC); type: cell-based, M. tuberculosis; conditions: for MIC: Mycobacterium tuberculosis
[10] = Metabolic stability in human liver microsomes; conditions: both, pH 7.4
RIF-R2 (ATCC35838) = assay: microbe, parasite or virus in culture; type: cell-based; conditions: Mycobacterium tuberculosis, single drug
[11] = tested on: M. tuberculosis constitutively expressing the luxABCDE operon; conditions: isoniazid alone (Cho, S. H. et al. 2007), cited from earlier work
[12] = 504 h, single compound, 2-log kill in 21 days, read-out: MBC
[13] = CDC1551, TB drug alone, read-out: Aerobic MIC
[14] = CDC1551, BDQ with 10 μM 6-azasteroid, read-out: Aerobic MIC of BDQ
[15] = CDC1551, Pa (pretomanid) with 10 μM 6-azasteroid, read-out: Aerobic MIC of Pa

## COc1nc2ccc(Br)cc2cc1[C@@H](c1ccccc1)[C@@](O)(CCN(C)C)c1cccc2ccccc12 [BDQ, bedaquiline, reference compound]
M. tuberculosis; [12]
  MBC: 0.5 µM (≈ 0.278 µg/mL)
M. tuberculosis CDC1551 [1]; [13]
  MIC: 0.1 µM (≈ 0.0556 µg/mL)

## CC(C)/N=c1\cc2n(-c3ccc(Cl)cc3)c3ccccc3nc-2cc1Nc1ccc(Cl)cc1 [CLOF, clofazimine]
M. tuberculosis CDC1551 [1]; [13]
  MIC: 2 µM (≈ 0.947 µg/mL)

## CC(C)(C)c1ccc(C(C)(C)C)c(NC(=O)[C@H]2CCC3C4CNC5=CC(=O)CC[C@]5(C)C4CC[C@@]32C)c1 (some centres unmarked) [Compound 100]
[2]
  toxicity: no toxicity was observed
M. tuberculosis CDC1551 [3]
  rapid killing with mono-treatment: no rapid killing in 15 days
In vitro [4]
  CLint scaled at 2 μM: 37.5 mL/min/kg
  microsomal CLint at 2 μM: 29.9 µL/min/mg
Caco-2 cell line
  substrate for P-gp transporter: not a substrate for P-gp transporter
Caco-2 cell line; human, pH 7.4
  intestinal absorption suggested by Papp(A-B): over 50%
In vitro [5]
  Papp A→B at 2 h, 5 μM: 1.4 ×10⁻⁶ cm/s
In vitro [5]; Caco-2, pH 7.4, efflux ratio
  efflux ratio at 2 h, 5 μM: ~0.5
[6]; 100 at 20 μM
  improvement of the potency of INH: 10 fold
[6]
  IC50: 3000 nM
  IC90: > 40000 nM
[7]; INH with 15 μM 6-azasteroid
  MIC: 0.75 µM
[7]
  activity under low oxygen conditions: active
M. tuberculosis; INH with 12 μM 100, read-out: MBC of INH
  MBC: 0.6 µM
[8]
  T1/2 previously reported: 164 min
hERG
  IC50: 953 nM
[9]
  Remaining Percentage with NADPH, 0 min: 100.00%
  Remaining Percentage with NADPH, 15 min: 65.83%
  Remaining Percentage with NADPH, 30 min: 55.21%
  Remaining Percentage with NADPH, 45 min: 48.69%
  Remaining Percentage with NADPH, 60 min: 37.91%
M. tuberculosis CDC1551 [1]
  Aerobic MIC of CLOF: NC^b
M. tuberculosis CDC1551 [1]; [14]
  MIC: 0.01 µM
M. tuberculosis CDC1551 [1]; [15]
  MIC: 0.0002 µM
Mtb
  Isoniazid MIC shift: +++ (>10-fold +++)
[10]
  half-life at 2 μM: 46.3 min

## CC(C)(C)OC(=O)N1CC2C(CC[C@@]3(C)C2CC[C@@H]3C(=O)Nc2cc(C(F)(F)F)ccc2C(F)(F)F)[C@@]2(C)CCC(=O)C=C12 (some centres unmarked) [Compound 103]
Mtb
  Isoniazid MIC shift: +++ (>10-fold +++)

## CC1C[C@@]2(C)C(=CC1=O)N(C)CC1C2CC[C@@]2(C)C1CC[C@@H]2C(=O)Nc1cc(C(C)(C)C)ccc1C(C)(C)C (some centres unmarked) [Compound 104]
Mtb
  Isoniazid MIC shift: ++ (4-8-fold ++)

## COc1nc(OC(F)(F)F)c(NC(=O)C2CCC3C4CNC5=CC(=O)CC[C@]5(C)C4CC[C@]23C)cc1Br (some centres unmarked) [Compound 105]
M. tuberculosis CDC1551 [1]; [15]
  MIC: 0.0002 µM
Mtb
  Isoniazid MIC shift: + (2-4-fold +)

## CC(C)(C)c1cc(NC(=O)[C@H]2CCC3C4CNC5=CC(=O)CC[C@]5(C)C4CC[C@@]32C)cc(C(C)(C)C)c1 (some centres unmarked) [Compound 109]
Mtb
  Isoniazid MIC shift: ++ (4-8-fold ++)

## CN1CC2C(CC[C@@]3(C)C2CC[C@@H]3C(=O)Nc2cc(C(C)(C)C)ccc2C(C)(C)C)[C@@]2(C)CCC(=O)C=C12 (some centres unmarked) [Compound 113]
Mtb
  Isoniazid MIC shift: +++ (>10-fold +++)

## CCCN1CC2C(CC[C@@]3(C)C2CC[C@@H]3C(=O)Nc2cc(C(C)(C)C)ccc2C(C)(C)C)[C@@]2(C)CCC(=O)C=C12 (some centres unmarked) [Compound 114]
M. tuberculosis CDC1551 [3]
  effect on bactericidal activity of bedaquiline: improves bactericidal activity of bedaquiline
  rapid killing with mono-treatment: no rapid killing in 15 days
In vitro [4]
  microsomal CLint at 2 μM: 73.2 µL/min/mg
Caco-2 cell line
  substrate for P-gp transporter: not a substrate for P-gp transporter
Caco-2 cell line; human, pH 7.4
  intestinal absorption suggested by Papp(A-B): over 50%
Caco-2 cell line; human, Caco-2, 2 h, 5 μM, pH 7.4
  Efflux Ratio: 0.48
In vitro [5]; Caco-2, pH 7.4, Efflux Ratio
  efflux ratio at 2 h, 5 μM: 0.87
In vitro [5]
  Papp A→B at 2 h, 5 μM: 0.85 ×10⁻⁶ cm/s
In vitro [5]; Caco-2, pH 7.4, efflux ratio
  efflux ratio at 2 h, 5 μM: ~0.5
[7]; INH with 55 μM 6-azasteroid
  MIC: 2.75 µM
[7]
  activity under low oxygen conditions: active
M. tuberculosis; [12]
  MBC: > 40 µM
M. tuberculosis; BDQ with 10 μM 114, read-out: MBC of BDQ
  MBC: 0.025 µM
M. tuberculosis; INH with 13 μM 114, read-out: MBC of INH
  MBC: 0.7 µM
hERG
  IC50: 739 nM
[9]
  Remaining Percentage with NADPH, 0 min: 100.00%
  Remaining Percentage with NADPH, 15 min: 24.89%
  Remaining Percentage with NADPH, 30 min: 4.76%
  Remaining Percentage with NADPH, 45 min: 1.68%
  Remaining Percentage with NADPH, 60 min: 0.96%
M. tuberculosis CDC1551 [1]
  Aerobic MIC of CLOF: NC^b
M. tuberculosis CDC1551 [1]; [14]
  MIC: < 0.0015 µM
Mtb
  Isoniazid MIC shift: +++ (>10-fold +++)
[10]
  half-life at 2 μM: 18.9 min

## CCc1cc(C(N)=S)ccn1 [ETH, ethionamide]
M. tuberculosis CDC1551 [1]; CDC1551, read-out: Aerobic MIC
  MIC: 12.5 µM (≈ 2.08 µg/mL)

## NNC(=O)c1ccncc1 [INH, isoniazid]
RIF-R2 (ATCC35838)
  MIC: 0.6 µM (≈ 0.0823 µg/mL)
[11]
  LORA MIC: >128 µM
[11]; listed as isoniazid
  LORA MIC: > 128 µM
[6]
  IC50: ~1500 nM
  IC90: > 6000 nM
M. tuberculosis; [12]
  MBC: > 230 µM
M. tuberculosis CDC1551 [1]; [13]
  MIC: 0.2 to 0.4 µM (≈ 0.0274 to 0.0549 µg/mL)
Mtb; isoniazid without 6-azasteroid, read-out: MIC for isoniazid
  MIC: 0.4 µM
Mtb; read-out: MIC for isoniazid alone
  MIC: 0.2 to 0.4 µM

## CC(=O)NC[C@H]1CN(c2ccc(N3CCOCC3)c(F)c2)C(=O)O1 [LIN, linezolid]
M. tuberculosis CDC1551 [1]; CDC1551, read-out: Aerobic MIC
  MIC: 0.8 µM (≈ 0.27 µg/mL)

## C[C@H]1COc2c(N3CCN(C)CC3)c(F)cc3c(=O)c(C(=O)O)cn1c23 [Levofloxacin]
RIF-R2 (ATCC35838)
  MIC: 2.4 µM (≈ 0.867 µg/mL)

## COc1c(N2C[C@@H]3CCCN[C@@H]3C2)c(F)cc2c(=O)c(C(=O)O)cn(C3CC3)c12 [MOXI, moxifloxacin]
M. tuberculosis CDC1551 [1]; [13]
  MIC: 0.18 µM (≈ 0.0723 µg/mL)

## O=[N+]([O-])c1cn2c(n1)OC[C@@H](OCc1ccc(OC(F)(F)F)cc1)C2 [Pa, pretomanid]
M. tuberculosis CDC1551 [1]; [13]
  MIC: 0.00625 µM (≈ 0.00225 µg/mL)

## CO[C@H]1/C=C/O[C@@]2(C)Oc3c(C)c(O)c4c(O)c(c(/C=N/N5CCN(C)CC5)c(O)c4c3C2=O)NC(=O)/C(C)=C\C=C\[C@H](C)[C@H](O)[C@@H](C)[C@@H](O)[C@@H](C)[C@H](OC(C)=O)[C@@H]1C [Rifampicin]
RIF-R2 (ATCC35838)
  MIC: > 50 µM
